# Measured values taken from ChEMBL document CHEMBL1131400, “Synthesis and comparative evaluation of two antiviral agents: beta-L-Fd4C and beta-D-Fd4C” (Bioorg Med Chem Lett, 1998).
# Legend:
# B16 = experiment: In vitro inhibitory activity against growth of HIV infected B16 cell line; type: functional, cell-based; settings: Mus musculus
# CCRF-CEM [1] = experiment: In vitro inhibitory activity against growth of HIV infected CEM cell line; type: functional, cell-based; settings: Homo sapiens
# CCRF-CEM [2] = experiment: In vitro inhibitory activity against growth of HIV infected CEM cells combined with murine CTLL-2T lymphoblast cell line; type: functional, cell-based; settings: Homo sapiens
# Rat1 = experiment: In vitro inhibitory activity against growth of HIV infected Rat-1 cell line; type: functional, cell-based
# MT2 = experiment: In vitro inhibitory activity against growth of HIV infected MT-2/IIIB cell line; type: functional, cell-based; settings: Homo sapiens
# Hepatitis B virus = experiment: In vitro inhibitory activity against proliferation of HBV viral cell; type: functional, organism-based
# DLD-1 = experiment: In vitro inhibitory activity against growth of HIV infected DLD-1 cell line; type: functional, cell-based; settings: Homo sapiens
# [3] = test system: Human immunodeficiency virus; experiment: In vitro inhibitory activity against proliferation of HIV viral cell; type: functional, organism-based; settings: Human immunodeficiency virus 1
# HepG2 = experiment: In vitro inhibitory activity against growth of HIV infected HepG2 cell line; type: functional, cell-based; settings: Homo sapiens
IC50 (B16) [µM],IC50 (CCRF-CEM [1]) [µM],IC50 (CCRF-CEM [2]) [µM],IC50 (DLD-1) [µM],IC50 (HepG2) [µM],Compound,IC50 (Rat1) [µM],IC50 (MT2) [µM],EC50 (Hepatitis B virus) [µM],EC50 [3] [µM]
> 200,100,127,> 200,> 200,Nc1nc(=O)n([C@H]2C=C[C@@H](CO)O2)cc1F [DEXELVUCITABINE],> 200,100,< 0.3,0.2
> 200,6.5,24,> 200,> 200,Nc1nc(=O)n([C@@H]2C=C[C@H](CO)O2)cc1F [ELVUCITABINE],> 200,9,,0.2
